Source: ChEMBL document CHEMBL1125398, “Antiestrogens. 3. Estrogen receptor affinities and antiproliferative effects in MCF-7 cells of phenolic analogues of trioxifene, [3,4-dihydro-2-(4- methoxyphenyl)-1-naphthalenyl][4-[2-(1-pyrrolidinyl)ethoxy]- phenyl]methanone” (J Med Chem, 1992)

Key:
Homo sapiens = species: Homo sapiens; assay: Inhibition of Calmodulin activation of cyclic nucleotide phosphodiesterase; type: functional; conditions: concentration not given here
Estrogen receptor = Estrogen receptor (Homo sapiens, UniProt Q92731+P03372); conditions: mcf7
Description: Displacement of [3H]estradiol from Estrogen receptor in MCF-7 cells

Compound	inhibition (Homo sapiens) [%]	IC50 (Estrogen receptor) [nM]
Oc1ccc2c(c1)C(c1ccc(OCCN3CCCCC3)cc1)c1c-2ccc2cc(O)ccc12 (configuration not stated)	18	125
CC/C(=C(\c1ccccc1)c1ccc(OCCN(C)C)cc1)c1ccccc1	44	
Oc1ccc2c3c(ccc2c1)-c1ccccc1C3c1ccc(OCCN2CCCCC2)cc1 (configuration not stated)	22	740
O=C(c1ccc(OCCN2CCCCC2)cc1)c1c(-c2ccc(O)cc2)sc2cc(O)ccc12	6	
O=C(C1=C(c2ccccc2)CCc2cc(O)ccc21)c1ccc(OCCN2CCCCC2)cc1	6	1650
O=C(c1ccc(OCCN2CCCC2)cc1)c1c(-c2ccc(O)cc2)sc2cc(O)ccc12 [LY-117018]	3	120
O=C(C1=C(c2ccc(O)cc2)CCc2cc(O)ccc21)c1ccc(OCCN2CCCCC2)cc1	2	73
